Source: PMC10824666 (Nature Cancer, 2023)
Read-outs that look alike come from different tables or passages of the source. One block for each molecule: values may come before it.

Experiments:
Assay in all cases: biochemical
Design in all cases: Eurofins DiscoverX kinase panel, competitive binding assay at 1 uM, percent of DMSO control
Details in all cases: competitive binding, percent of DMSO control
[1] = target: T1, Mps1 (Homo sapiens, UniProt P33981)
T1 construct: gene TTK
T1 sequence (P33981 1-857): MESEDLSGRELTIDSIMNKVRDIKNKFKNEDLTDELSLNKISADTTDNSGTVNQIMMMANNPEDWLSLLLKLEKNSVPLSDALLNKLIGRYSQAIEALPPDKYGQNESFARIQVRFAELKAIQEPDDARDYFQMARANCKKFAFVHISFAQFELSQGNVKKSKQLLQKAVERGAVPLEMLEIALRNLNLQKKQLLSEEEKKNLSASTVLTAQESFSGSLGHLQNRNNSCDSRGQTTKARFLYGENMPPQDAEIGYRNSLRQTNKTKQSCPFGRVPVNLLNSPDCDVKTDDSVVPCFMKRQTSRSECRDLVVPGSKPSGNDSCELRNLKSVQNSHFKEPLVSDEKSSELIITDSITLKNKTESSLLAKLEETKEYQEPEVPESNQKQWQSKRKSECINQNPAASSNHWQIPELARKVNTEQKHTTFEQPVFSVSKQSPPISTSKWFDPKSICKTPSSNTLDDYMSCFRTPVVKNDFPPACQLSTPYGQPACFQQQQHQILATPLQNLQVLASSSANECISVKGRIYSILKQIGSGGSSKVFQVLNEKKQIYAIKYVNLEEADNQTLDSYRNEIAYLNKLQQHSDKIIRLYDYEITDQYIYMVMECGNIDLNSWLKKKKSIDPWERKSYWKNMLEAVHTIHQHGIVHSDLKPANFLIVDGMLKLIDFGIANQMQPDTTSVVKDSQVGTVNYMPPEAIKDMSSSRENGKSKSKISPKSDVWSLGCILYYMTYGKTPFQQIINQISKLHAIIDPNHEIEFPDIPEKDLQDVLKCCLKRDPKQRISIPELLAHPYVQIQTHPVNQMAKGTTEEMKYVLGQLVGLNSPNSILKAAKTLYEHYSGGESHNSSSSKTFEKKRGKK
Outline: (§1)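 Competitive binding assay across a 96-kinase panel with KIF18A compounds at 1 µM; values given as percentage of control (POC), single experiment.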

[2] = target: T2, MAP2K3 (Homo sapiens, UniProt P46734)
T2 sequence (P46734 1-347): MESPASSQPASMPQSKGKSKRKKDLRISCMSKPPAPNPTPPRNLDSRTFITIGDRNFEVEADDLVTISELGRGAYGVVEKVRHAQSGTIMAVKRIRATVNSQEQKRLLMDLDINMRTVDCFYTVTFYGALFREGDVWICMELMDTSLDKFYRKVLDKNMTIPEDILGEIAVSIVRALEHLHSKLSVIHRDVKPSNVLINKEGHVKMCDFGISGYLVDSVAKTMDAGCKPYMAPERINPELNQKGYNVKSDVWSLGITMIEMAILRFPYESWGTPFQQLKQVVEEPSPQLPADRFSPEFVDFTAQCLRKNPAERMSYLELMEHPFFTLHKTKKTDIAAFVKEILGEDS
Outline: as §1

[3] = target: KDR (Homo sapiens, UniProt P35968)
Outline: as §1

[4] = target: T3, RSK 1 (Homo sapiens, UniProt Q15418)
T3 construct: gene RPS6KA1
Outline: as §1

[5] = target: CDK18 (Homo sapiens, UniProt Q07002)
Outline: as §1

[6] = read-out: Kinome Profiling performed by Eurofins DiscoverX / AM-0277, 1.0 µM / POC
[7] = read-out: Kinome Profiling performed by Eurofins DiscoverX / AM-1882, 1.0 µM / POC
[8] = read-out: Kinome Profiling performed by Eurofins DiscoverX / AM-5308, 1.0 µM / POC

KDR, sequence (P35968 whole entry): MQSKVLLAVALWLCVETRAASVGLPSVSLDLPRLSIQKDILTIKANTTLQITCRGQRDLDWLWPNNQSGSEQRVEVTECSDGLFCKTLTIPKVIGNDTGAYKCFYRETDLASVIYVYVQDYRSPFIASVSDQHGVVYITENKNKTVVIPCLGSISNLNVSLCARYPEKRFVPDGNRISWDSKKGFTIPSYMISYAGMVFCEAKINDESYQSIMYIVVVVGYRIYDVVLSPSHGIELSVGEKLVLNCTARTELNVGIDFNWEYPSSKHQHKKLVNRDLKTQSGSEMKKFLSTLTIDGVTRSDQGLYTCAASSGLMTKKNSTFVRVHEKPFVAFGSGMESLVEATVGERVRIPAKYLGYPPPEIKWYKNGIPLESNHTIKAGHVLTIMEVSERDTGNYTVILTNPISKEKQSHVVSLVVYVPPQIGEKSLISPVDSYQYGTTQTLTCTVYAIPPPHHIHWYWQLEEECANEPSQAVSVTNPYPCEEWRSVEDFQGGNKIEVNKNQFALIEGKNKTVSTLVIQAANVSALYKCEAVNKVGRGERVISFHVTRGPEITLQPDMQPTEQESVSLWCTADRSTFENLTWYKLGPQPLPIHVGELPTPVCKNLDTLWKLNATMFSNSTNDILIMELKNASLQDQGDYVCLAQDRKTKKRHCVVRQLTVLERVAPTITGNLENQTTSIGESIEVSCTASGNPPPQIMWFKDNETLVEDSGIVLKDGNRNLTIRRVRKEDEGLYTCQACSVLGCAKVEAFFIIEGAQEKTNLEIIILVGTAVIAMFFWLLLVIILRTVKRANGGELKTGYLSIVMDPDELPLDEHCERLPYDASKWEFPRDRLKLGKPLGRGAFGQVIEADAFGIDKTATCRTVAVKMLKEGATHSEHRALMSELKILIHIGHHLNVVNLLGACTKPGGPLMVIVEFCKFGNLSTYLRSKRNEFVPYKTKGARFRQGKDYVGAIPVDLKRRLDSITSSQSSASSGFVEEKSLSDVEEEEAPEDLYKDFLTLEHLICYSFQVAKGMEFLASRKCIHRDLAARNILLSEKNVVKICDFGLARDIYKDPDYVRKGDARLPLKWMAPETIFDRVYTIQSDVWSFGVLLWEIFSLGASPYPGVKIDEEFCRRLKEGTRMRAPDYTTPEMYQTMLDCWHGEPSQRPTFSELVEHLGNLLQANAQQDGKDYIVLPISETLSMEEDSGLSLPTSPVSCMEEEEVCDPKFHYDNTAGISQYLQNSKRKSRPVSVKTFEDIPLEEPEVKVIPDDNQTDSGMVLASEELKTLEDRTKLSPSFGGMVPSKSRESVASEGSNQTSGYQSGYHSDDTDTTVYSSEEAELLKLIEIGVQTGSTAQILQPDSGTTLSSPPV
CDK18, sequence (Q07002 whole entry): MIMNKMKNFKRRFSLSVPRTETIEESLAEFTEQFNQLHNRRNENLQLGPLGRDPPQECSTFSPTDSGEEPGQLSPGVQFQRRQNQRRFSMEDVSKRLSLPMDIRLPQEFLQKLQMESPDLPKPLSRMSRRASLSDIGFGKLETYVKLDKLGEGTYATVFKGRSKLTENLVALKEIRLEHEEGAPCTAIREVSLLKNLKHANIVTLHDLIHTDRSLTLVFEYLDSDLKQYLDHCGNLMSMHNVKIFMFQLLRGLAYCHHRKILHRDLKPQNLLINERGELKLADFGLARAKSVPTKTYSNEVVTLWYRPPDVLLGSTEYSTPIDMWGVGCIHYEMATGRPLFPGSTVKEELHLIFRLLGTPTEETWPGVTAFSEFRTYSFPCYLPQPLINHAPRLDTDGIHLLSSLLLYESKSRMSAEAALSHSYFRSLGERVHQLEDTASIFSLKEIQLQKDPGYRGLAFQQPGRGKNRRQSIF
T3 sequence (Q15418 whole entry): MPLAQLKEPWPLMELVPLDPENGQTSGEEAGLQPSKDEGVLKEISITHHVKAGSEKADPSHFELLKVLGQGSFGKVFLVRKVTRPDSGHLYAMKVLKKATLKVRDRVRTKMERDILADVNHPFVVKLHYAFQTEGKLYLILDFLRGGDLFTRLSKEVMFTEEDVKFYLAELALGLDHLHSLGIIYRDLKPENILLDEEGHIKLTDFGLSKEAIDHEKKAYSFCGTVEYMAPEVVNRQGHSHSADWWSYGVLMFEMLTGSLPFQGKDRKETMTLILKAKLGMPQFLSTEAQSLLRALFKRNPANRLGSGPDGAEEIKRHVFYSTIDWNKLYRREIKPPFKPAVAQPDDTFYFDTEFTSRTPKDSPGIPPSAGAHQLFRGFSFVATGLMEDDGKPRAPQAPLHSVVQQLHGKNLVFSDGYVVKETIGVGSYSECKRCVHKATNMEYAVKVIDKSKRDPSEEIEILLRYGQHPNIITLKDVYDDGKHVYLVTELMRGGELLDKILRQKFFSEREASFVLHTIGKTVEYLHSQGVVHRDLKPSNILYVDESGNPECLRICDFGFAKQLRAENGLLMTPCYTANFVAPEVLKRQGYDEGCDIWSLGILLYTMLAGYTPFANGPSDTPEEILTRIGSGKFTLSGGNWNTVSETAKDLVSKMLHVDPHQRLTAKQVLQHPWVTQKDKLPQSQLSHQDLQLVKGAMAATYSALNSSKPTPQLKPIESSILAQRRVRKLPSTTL

remaining activity at 1 µM [1, 6]: 76% | remaining activity at 1 µM [2, 6]: 96% | remaining activity at 1 µM [3, 6]: 90% | remaining activity at 1 µM [4, 6]: 100% | remaining activity at 1 µM [5, 6]: 78%
Compound: CC(C)(CO)Nc1ccc(C(=O)Nc2cccc(S(=O)(=O)C3CCCC3)c2)c(N2CCC3(CC2)CC3)n1 [AM-0277]

remaining activity at 1 µM [1, 7]: 97% | remaining activity at 1 µM [2, 7]: 67% | remaining activity at 1 µM [3, 7]: 80.5% | remaining activity at 1 µM [4, 7]: 100% | remaining activity at 1 µM [5, 7]: 76%
Compound: CC(C)(C)NS(=O)(=O)c1cccc(NC(=O)c2ccc(S(=O)(=O)NC(C)(C)C)cc2N2CCC3(CC2)CC3)c1 [AM-1882]

remaining activity at 1 µM [1, 8]: 47% | remaining activity at 1 µM [2, 8]: 88.5% | remaining activity at 1 µM [3, 8]: 53% | remaining activity at 1 µM [4, 8]: 91.5% | remaining activity at 1 µM [5, 8]: 94%
Compound: C[C@@H]1CN(c2cccc(NC(=O)c3ccc(NS(=O)(=O)CCO)cc3N3CCC4(CC3)CC4)n2)CCO1 [AM-5308]
